Measured values taken from PubChem BioAssay AID2060487 (Molecular Pharmacology Branch, DTP, NCI, 2025).
“And” between values parts separate entries of the source, which are not always exact repeats. Equal values may be shown once. Blank lines part the entries; values can stand above or below the molecule they belong to.

Test system: 997537-175-T-J1-PDC complex spheroid viability
Assay: Anticancer human tumor 997537-175-T-J1-PDC patient-derived colon adenocarcinoma cell line growth inhibition [GQUAD]
Conditions: for viability, T/C: stronger effect = lower value
Source text: DNA G-quadruplex Stabilizer Agents in Combinations in Complex Spheroids
A high-throughput screen of multi-cell type tumor spheroids was designed to identify active combinations of DNA G-quadruplex stabilizer agents and targeted small molecules. Complex spheroids include a stromal component modeled by human endothelial cells (HUVEC) and fibroblasts modeled by human mesenchymal stem cells (MSCs). The concentration ranges selected for each drug and investigational agent were based upon clinically achievable concentrations if the clinical Cmax of the agent was known.
Compounds. The drugs and investigational agents: pidnarulex (CX-5461; NSC782164), APTO-253 (NSC789042), BRACO-19 (NSC847499), peposertib (NSC802822), ceralasertib (NSC780249), elimusertib (NSC800525), camonsertib (NSC841442), AZD-1390 (NSC803789), olaparib (NSC753686), talazoparib (NSC767125), ART-558 (NSC835418), sotorasib (NSC818433), MRTX-1133 (NSC836407), SN-38 (NSC673596), topotecan (NSC609699), etoposide (NSC141540), doxorubicin (NSC123127), gemcitabine (NSC613327), 5-fluorouracil (NSC19893), paclitaxel (NSC125973), vemurafenib (NSC761431), panobinostat (NSC761190), R-306465 (JNJ-16241199; NSC773264), adavosertib (NSC754352), TP-3654 (NSC805149), carboplatin (NSC241240), KSQ-4279 (NSC840948), and staurosporine (NSC755774) were obtained from the National Cancer Institute (NCI) Developmental Therapeutics Program Chemical Repository (34). The FDA-approved anticancer drug set is available from the NCI Developmental Therapeutics Program. […] The stock solutions were prepared in dimethyl sulfoxide (DMSO, Sigma-Aldrich, St. Louis, MO, cat. D2650) at 800-fold the tested concentration and stored at -70 degrees C prior to their use. All drugs and investigational agents were tested over a range starting from a high concentration at or near the clinical Cmax and decreasing in half-log increments. If the clinical Cmax for an agent had not been determined, the highest concentration tested was 10 microM.
2.3 Cell Culture. All cells were maintained in an incubator at 37 degrees C and 5% CO2 with 95% humidity. The PDC lines were cultured according to standard operating procedures established by the NCI PDMR. All PDCs were thawed and cultured in Matrigel-coated flasks prepared with a working solution of 1X Ham's F-12 nutrient mix, without supplementation (Invitrogen, cat. 11765054), 100 U/mL penicillin-streptomycin (Invitrogen, cat. 15140122), and 2.5% Matrigel (Corning Inc., cat. 354248) for the first three passages. The 857933-349-R-J2-PDC line was cultured in 6C/Colon 1B media, which includes advanced DMEM/F-12 (Thermo Fisher Scientific, cat. 12634028), 10 mM HEPES (Thermo Fisher Scientific, cat. 15630080), 1X GlutaMAX supplement (Thermo Fisher Scientific, cat. 35050061), 0.1 mg/mL primocin (InvivoGen, cat. ant-pm-2), 10% defined fetal bovine serum, heat inactivated (HyClone Laboratories Inc., cat. SH30070.03HI), 50% L-WRN conditioned media (ATCC, cat. CRL-3276), 1.25 mM N-Acetyl-L-cysteine (Sigma-Aldrich, cat. A9165), 10 mM nicotinamide (Sigma-Aldrich, cat. N0636), 1X B-27 supplement (Thermo Fisher Scientific, cat. 17504044), 1X N-2 supplement (Thermo Fisher Scientific, cat. 17502048), 10 microM Y-27632 dihydrochloride (Tocris Bioscience, cat. 1254), and 50 ng/mL human EGF recombinant protein (Thermo Fisher Scientific, cat. PHG0311). The 485176-168-R4-J1-PDC line was cultured in Panc media, which includes all 6C/Colon 1B media components plus 100 ng/mL human FGF-10 (Thermo Fisher Scientific, cat. 100-26), 500 nM SB-431542 (Selleckchem, cat. S1067), and gastrin (Tocris, cat. 3006).
[…]

[1] = compound alone, run of 04/22/2024
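Note: spheroids exposed to the agents for 7 days.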
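Throughout, for viability, T/C: 100% = DMSO vehicle control viability.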

Structure (SMILES): CC(C)(O)C1CCC(Nc2ccc3ncc(-c4cccc(C(F)(F)F)c4)n3n2)CC1 (stereo not given)
viability, T/C (compound 0.0316 µM): 106% and 96.5% and 115%
viability, T/C (compound 0.1 µM): 111% and 78.3% and 65.2%
viability, T/C (compound 0.316 µM): 114% and 96.7% and 109%
viability, T/C (compound 1 µM): 101% and 61.5% and 68.3%
viability, T/C (compound 3.16 µM): 98.6% and 24.1% and 40.3%
viability, T/C (compound 10 µM): 96.8% and 28.7% and 36.9%
IC50 (curve of compound): > 10 µM and 1.46 µM and 2.03 µM

Structure (SMILES): CN(C)c1ccc(Nc2c3ccc(NC(=O)CCN4CCCC4)cc3nc3cc(NC(=O)CCN4CCCC4)ccc23)cc1
viability, T/C (compound 0.316 µM): 97.1% [middle of 12 runs]
IC50 [1]: > 10 µM

Structure (SMILES): C#Cc1c(F)ccc2cc(O)cc(-c3ncc4c(N5CC6CCC(C5)N6)nc(OCC56CCCN5CC(F)C6)nc4c3F)c12 (stereo not given)
viability, T/C (compound 0.0316 µM): 89% and 91.8% and 98.1%
viability, T/C (compound 0.1 µM): 89.1% and 92.2% and 103%
viability, T/C (compound 0.316 µM): 104% and 94.8% and 102%
viability, T/C (compound 1 µM): 99.4% and 67.4% and 107%
viability, T/C (compound 3.16 µM): 88.9% and 38.7% and 91.8%
viability, T/C (compound 10 µM): 106% and 35.1% and 92.4%
IC50 (curve of compound): > 10 µM and 1.94 µM

Structure (SMILES): COc1cc(C2c3cc4c(cc3C(OC3OC5COC(C)OC5C(O)C3O)C3COC(=O)C23)OCO4)cc(OC)c1O (stereo not given) + Cc1[nH]c2ccc(F)cc2c1-c1nc2c3cccnc3c3ncccc3c2[nH]1
IC50 (curve of first compound, second compound 0.0316 µM): > 10 µM
IC50 (curve of first compound, second compound 0.1 µM): > 10 µM
IC50 (curve of first compound, second compound 0.316 µM): > 10 µM
IC50 (curve of first compound, second compound 1 µM): > 10 µM
IC50 (curve of first compound, second compound 3.16 µM): > 10 µM
IC50 (curve of first compound, second compound 10 µM): > 10 µM
viability, T/C (second compound 0.0316 µM, first compound 0.0316 µM): 105%
viability, T/C (second compound 0.0316 µM, first compound 0.1 µM): 90%
viability, T/C (second compound 0.0316 µM, first compound 0.316 µM): 102%
viability, T/C (second compound 0.0316 µM, first compound 1 µM): 64.1%
viability, T/C (second compound 0.0316 µM, first compound 3.16 µM): 109%
viability, T/C (second compound 0.0316 µM, first compound 10 µM): 53.6%
viability, T/C (second compound 0.1 µM, first compound 0.0316 µM): 99%
viability, T/C (second compound 0.1 µM, first compound 0.1 µM): 75.9%
viability, T/C (second compound 0.1 µM, first compound 0.316 µM): 89%
viability, T/C (second compound 0.1 µM, first compound 1 µM): 88.3%
viability, T/C (second compound 0.1 µM, first compound 3.16 µM): 90.8%
viability, T/C (second compound 0.1 µM, first compound 10 µM): 75.3%
viability, T/C (second compound 0.316 µM, first compound 0.0316 µM): 96.4%
viability, T/C (second compound 0.316 µM, first compound 0.1 µM): 64.1%
viability, T/C (second compound 0.316 µM, first compound 0.316 µM): 91.1%
viability, T/C (second compound 0.316 µM, first compound 1 µM): 84.5%
viability, T/C (second compound 0.316 µM, first compound 3.16 µM): 91%
viability, T/C (second compound 0.316 µM, first compound 10 µM): 76.8%
viability, T/C (second compound 1 µM, first compound 0.0316 µM): 89.8%
viability, T/C (second compound 1 µM, first compound 0.1 µM): 77.2%
viability, T/C (second compound 1 µM, first compound 0.316 µM): 88.5%
viability, T/C (second compound 1 µM, first compound 1 µM): 84.8%
viability, T/C (second compound 1 µM, first compound 3.16 µM): 67.7%
viability, T/C (second compound 1 µM, first compound 10 µM): 53.1%
viability, T/C (second compound 3.16 µM, first compound 0.0316 µM): 88.5%
viability, T/C (second compound 3.16 µM, first compound 0.1 µM): 71%
viability, T/C (second compound 3.16 µM, first compound 0.316 µM): 85.8%
viability, T/C (second compound 3.16 µM, first compound 1 µM): 75.7%
viability, T/C (second compound 3.16 µM, first compound 3.16 µM): 98.6%
viability, T/C (second compound 3.16 µM, first compound 10 µM): 72.4%
viability, T/C (second compound 10 µM, first compound 0.0316 µM): 84.8%
viability, T/C (second compound 10 µM, first compound 0.1 µM): 92.7%
viability, T/C (second compound 10 µM, first compound 0.316 µM): 78.6%
viability, T/C (second compound 10 µM, first compound 1 µM): 81%
viability, T/C (second compound 10 µM, first compound 3.16 µM): 86%
viability, T/C (second compound 10 µM, first compound 10 µM): 65.2%

Second part, led by results:

IC50 (compound alone, run of 04/16/2024): > 10 µM
IC50 [1]: > 10 µM
Structure (SMILES): Cc1[nH]c2ccc(F)cc2c1-c1nc2c3cccnc3c3ncccc3c2[nH]1
viability, T/C (compound 0.1 µM): 95.2% [middle of 12 runs]
viability, T/C (compound 0.316 µM): 98.8% [middle of 12 runs]
viability, T/C (compound 3.16 µM): 89.3% [middle of 12 runs]

IC50 (curve of compound): > 10 µM
Structure (SMILES): O=C(c1cc(Cc2n[nH]c(=O)c3ccccc23)ccc1F)N1CCN(C(=O)C2CC2)CC1
viability, T/C (compound 0.0316 µM): 106% and 94.3% and 90.2%
viability, T/C (compound 0.1 µM): 88% and 96.7% and 102%
viability, T/C (compound 0.316 µM): 94.6% and 102% and 107%
viability, T/C (compound 1 µM): 104% and 92.4% and 103%
viability, T/C (compound 3.16 µM): 102% and 64.4% and 79.6%
viability, T/C (compound 10 µM): 85.2% and 87.2% and 96.7%
